From patent US4876279A, “Antihypercholesterolemic compounds” (Merck & Co., Inc., priority 1988, dated 1989)

System: HMG-CoA reductase
Experiment: HMG-CoA Reductase Inhibition Assay (in vitro)
Format: biochemical, rat
Details: relative to compactin, arbitrarily assigned a value of 100; IC50 compared with that of compactin determined simultaneously; tested as sodium salt of dihydroxy acid form
Method: The intrinsic HMG-CoA reductase inhibition activity of the claimed compounds is measured in the in vitro protocol published in J. Med. Chem., 28, P. 347-358 (1985) and described below:
Isolation of HMG-CoA Reductase. Male Holtzman Sprague-Dawley rate (225-250 g) were kept on reversed lighting and fed Purina rat chow containing 3% cholestyramine for 7 days preceding their sacrifice by CO2 asphyxiation. Livers were removed 6 hours into the dark cycle and used immediately to prepare microsomes. […]
Test compounds or compactin (after first being converted to the sodium salt of their dihydroxy acid form in situ by addition of 1 N NaOH (1 equiv)) were added to the assay system in 10-μL volumes at multiconcentration levels. […] Five milliliters of Aquasol-2 (New England Nuclear) was added to each vial, and radioactivity was measured in a Packard Tri Carb Prias scintillation counter. IC50 values were determined by plotting percentage inhibition against test compounds concentration and fitting a straight line to the resulting data by using the least-squares method. For estimation of relative inhibitory potencies, compactin was assigned a value of 100 and the IC50 value of the test compound was compared with that of compactin determined simultaneously.

Row | Relative Potency | Substance
1 | 65 | 6(R)-[2-8(S)-(1-Ethoxycarbonylcyclobutanecarbonyloxy)-2(S),6(R)-dimethyl-1,2,6,7,8,8a-(R)-hexahydronaphthyl-1(S)]ethyl]-4(R)-hydroxy-3,4,5,6-tetrahydro-2H-pyrane-2-one
2 | 11 | 6(R)-[2-[8(S)-(1-Ethoxycarbonylcyclopropanecarbonyloxy)-2(S),6(R)-dimethyl-1,2,6,7,8,8a (R)-hexahydronaphthyl-1(S)]ethyl]-4(R)-hydroxy-3,4,5,6-tetrahydro-2H-pyran-2-one
